This note sets out measurements from patent US10766883B2, “Aminopyrazoles as janus kinase inhibitors” (Merck Sharp & Dohme Corp., priority 2016, dated 2020).

Assay [1] concerns Interleukin 4 (IL4)—JAK1/JAK3—STAT6 Pathway. The assay can be described thus: IL4 CellSensor beta-lactamase reporter assay (STAT6-bla RA-1 cells). The settings on record: reference compound, mean +/- spread across assay runs. Format: cell-based. The source says:
(§1) Inhibition of the activity of JAK kinases (JAK1, JAK2, JAK3 and TYK2) in intact cells was quantified in antagonist mode using CellSensor® transcriptional reporter technology (Life Technologies/ThermoFisher Scientific Inc., Waltham, Mass., USA; https://www.thermofisher.com/us/en/home/industrial/pharma-biopharma drug-discovery-development/target-and-lead-identification-and-validation/pathway-biology/cellular-pathway-analysis/cellsensor-cell-lines.html), in three independent cell lines engineered to detect IL4, IL6 and EPO signaling. In brief, CellSensor® cell lines (see details below for each assay) carrying a stably integrated β-Lactamase reporter gene under control of specific cis-regulatory STAT elements responsive to the pathway being monitored were pre-treated with test compounds serially diluted in DMSO (see preparation and dosing of compounds and agonist cytokines section). Following incubation with compounds, IL4, IL6, or EPO were added to each cognate cell line at a concentration equal to a dose necessary to achieve 80% of the maximal response (EC80).
(§2) Incubation with compounds, cytokines and LiveBLAzer™ were carried out at 37° C. in a tissue culture incubator maintained at 90% humidity and 5% CO2.
Interleukin 4 (IL4)—JAK1/JAK3—STAT6 Pathway […]
(In general: In a reporter assay the amount or activity of a reporter protein is the signal.)

The target of a further assay is JAK3 (Homo sapiens (Human), UniProt P52333). The experiment in a line: JAK biochemical HTRF enzyme assay, JAK3. The conditions noted are these: reference compound, mean +/- spread across assay runs. The protocol: (§3) The ability of compounds to inhibit the activity of JAK1, JAK2, JAK3, and Tyk2 was measured using a recombinant purified GST-tagged catalytic domain for each enzyme (InVitrogen/Life Technologies/ThermoFisher Scientific Inc., Waltham, Mass., USA; catalogue numbers: M4290(JAK1), M4290(JAK2), M4290(JAK3), M4290(Tyk2)) in an HTRF format biochemical assay. The reactions employed a common peptide substrate, LCB-[…]-NH2 (Merck Sharp & Dohme, Kenilworth, N.J., USA).
(§4) The basic assay protocol is as follows: First, 250 nL of diluted compounds in DMSO were dispensed into the wells of a dry 384-well Black plate (GreinerFluotrac™ catalog number: 781076; Greiner Bio-One GmbH, Frickenhausen, Germany) using a Labcyte Echo® 555 acoustic dispenser (Clarcyte, Inc, Sunnyvale, Calif., USA). Subsequent reagent additions employed an Agilent™ Bravo™ liquid handling system (Aligent Technologies, Santa Clara, Calif., USA). […] After equilibration, 2 μL of 10×ATP in 1× assay buffer was added to initiate the kinase reaction and the plates were shaken and then incubated at ambient temperature for 120 minutes. […] HTRF signal=10,000*665 nm reading/615 nm reading. After normalization to untreated controls, the percent inhibition of the HTRF signal at each compound concentration was calculated. […]
In general terms: TR-FRET usually uses a lanthanide donor and a delayed reading to cut background.

The target in a further assay is JAK1 (Homo sapiens (Human), UniProt P23458). The assay can be described thus: JAK biochemical HTRF enzyme assay, JAK1. The protocol: (§5) The ability of compounds to inhibit the activity of JAK1, JAK2, JAK3, and Tyk2 was measured using a recombinant purified GST-tagged catalytic domain for each enzyme (InVitrogen/Life Technologies/ThermoFisher Scientific Inc., Waltham, Mass., USA; catalogue numbers: M4290(JAK1), M4290(JAK2), M4290(JAK3), M4290(Tyk2)) in an HTRF format biochemical assay.
(§6) Subsequent reagent additions employed an Agilent™ Bravo™ liquid handling system (Aligent Technologies, Santa Clara, Calif., USA). […] After equilibration, 2 μL of 10×ATP in 1× assay buffer was added to initiate the kinase reaction and the plates were shaken and then incubated at ambient temperature for 120 minutes. […] After normalization to untreated controls, the percent inhibition of the HTRF signal at each compound concentration was calculated. The plot of percent inhibition versus the log of compound concentration was fit with a 4-parameter dose response equation to calculate IC50 values.

The next assay addresses Tyk2 (Homo sapiens (Human), UniProt P29597). The experiment in a line: JAK biochemical HTRF enzyme assay, Tyk2. The conditions noted are these: reference compound, mean +/- spread across assay runs. The protocol: as §3, §4
The subject of the next assay is EPO/Jak2/Stat5 pathway. The experiment in a line: EPO CellSensor beta-lactamase reporter assay (irf1-bla TF-1 cells). The settings on record: for IC50: Homo sapiens, irf1-bla TF-1 cells, EPO at EC80, read-out: EPO IP; for EPO/IL-6: ratio EPO IP / IL-6 IP. Format: cell-based, human.
Excerpt: as §1, with “section).” for “section). Following incubation with compounds, IL4, IL6, or EPO were added to each cognate cell line at a concentration equal to a dose necessary to achieve 80% of the maximal response (EC80).”
as §2
Erythropoietin (EPO)—JAK2—STAT5 Pathway
CellSensor irf1-bla TF-1 cells carry a stably integrated β-Lactamase reporter gene under control of the STAT5 Response Elements present in the Interferon Regulatory Factor I (IRF1) gene promoter.
(§7) Each CellSensor® cell line was subsequently plated as per supplier's instructions (30,000 cells in 32 μL/well) and mixed with the compound. Following a 60 minute incubation, cells were subsequently stimulated by addition of 8 μL of cognate cytokine (EC80 dose of IL4, IL6 and EPO) and incubated for an additional 3 hours, before adding LiveBLAzer™-FRET B/G substrate.
(§8) The IL-6 assay identifies agents that inhibit the beta-lactamase reporter activity initiated through stimulation of the IL-6R/JAK1/2/Stat3 pathway with recombinant human IL-6. The EPO assay identifies agents that inhibit the beta-lactamase reporter activity initiated through stimulation of the EPO/Jak2/Stat5 pathway with human EPO. Inhibition of EPO signaling leads to an inability to recover from anemia of chronic disease. […] That is, it is desirable for the EPO/IL-6 IC50 ratios to be a relatively large number.

Assay [2] deals with IL-6R/JAK1/2/Stat3 pathway. The experiment in a line: IL6 CellSensor beta-lactamase reporter assay (SIE-bla ME-180 cells). Format: cell-based. The settings on record: Homo sapiens; SIE-bla ME-180 cells, IL6 at EC80; read-out: IL-6 IP.
Excerpt: as §1, with “section).” for “section). Following incubation with compounds, IL4, IL6, or EPO were added to each cognate cell line at a concentration equal to a dose necessary to achieve 80% of the maximal response (EC80).”
as §2
Interleukin 6 (IL6)—JAK1/JAK2—STAT4 Pathway
CellSensor™ SIE-bla ME-180 cells carrying a stably integrated β-Lactamase reporter gene under control of the Sis-Inducible Element (SIE).
as §7, §8

The next assay has as its target JAK2 (Homo sapiens (Human), UniProt O60674). The experiment in a line: JAK biochemical HTRF enzyme assay, JAK2. The settings on record: for IC50: HTRF, GST-tagged catalytic domain, ATP 8.5 μM; for JAK2/1: ratio JAK2 IC50 / JAK1 IC50. The protocol:
as §5, §6

Where [3] appears, read: HTRF, GST-tagged catalytic domain, ATP 31.8 μM.

JAK1, sequence (P23458 875-1153): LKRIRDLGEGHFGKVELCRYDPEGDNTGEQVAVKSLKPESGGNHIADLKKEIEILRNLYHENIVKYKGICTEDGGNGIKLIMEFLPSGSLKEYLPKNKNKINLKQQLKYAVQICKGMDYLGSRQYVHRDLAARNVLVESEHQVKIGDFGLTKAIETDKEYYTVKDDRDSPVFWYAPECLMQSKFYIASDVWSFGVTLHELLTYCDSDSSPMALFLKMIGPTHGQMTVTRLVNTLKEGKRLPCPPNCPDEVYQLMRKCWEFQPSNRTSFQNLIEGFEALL
JAK2, sequence (O60674 849-1124): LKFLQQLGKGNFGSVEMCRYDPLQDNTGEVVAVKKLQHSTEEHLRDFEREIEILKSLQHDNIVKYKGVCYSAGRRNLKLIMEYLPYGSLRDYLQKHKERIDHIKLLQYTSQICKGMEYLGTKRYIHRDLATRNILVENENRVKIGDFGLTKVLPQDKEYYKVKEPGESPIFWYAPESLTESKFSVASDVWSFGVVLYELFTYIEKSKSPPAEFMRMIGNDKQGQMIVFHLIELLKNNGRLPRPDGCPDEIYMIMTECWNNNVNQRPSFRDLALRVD
JAK3, sequence (P52333 822-1111): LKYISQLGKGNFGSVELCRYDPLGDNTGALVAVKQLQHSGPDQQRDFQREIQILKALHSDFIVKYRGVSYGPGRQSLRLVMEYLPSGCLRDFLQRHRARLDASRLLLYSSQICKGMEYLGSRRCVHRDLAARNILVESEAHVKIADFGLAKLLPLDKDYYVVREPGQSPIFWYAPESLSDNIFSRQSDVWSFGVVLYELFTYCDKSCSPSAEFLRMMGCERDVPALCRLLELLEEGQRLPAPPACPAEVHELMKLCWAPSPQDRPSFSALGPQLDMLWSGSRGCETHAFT
Tyk2, sequence (P29597 897-1176): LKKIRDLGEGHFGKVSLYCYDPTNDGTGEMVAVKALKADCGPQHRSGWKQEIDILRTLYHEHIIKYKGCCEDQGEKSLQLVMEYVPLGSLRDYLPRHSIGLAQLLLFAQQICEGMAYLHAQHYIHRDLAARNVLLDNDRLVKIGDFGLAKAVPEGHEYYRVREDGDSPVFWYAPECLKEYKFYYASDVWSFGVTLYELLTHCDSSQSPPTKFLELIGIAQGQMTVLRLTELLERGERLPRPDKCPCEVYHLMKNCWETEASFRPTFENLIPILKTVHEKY

With `CN(C)[C@H]1CC[C@H](n2cc(C(N)=O)c(Nc3ccc(Cl)cc3)n2)[C@@H](C#N)C1` (single isomer, unassigned) [Reference Compound No. 1, 3-[(4-chlorophenyl)amino]-1-[(1S,2S,4S or 1R,2R,4R)-2-cyano-4-(dimethylamino)cyclohexyl]-1H-pyrazole-4-carboxamide], the IC50 in assay [1] is 25.7 nM; against JAK3 it was 1350 nM; at JAK1 (reference compound, mean +/- spread across assay runs) it was 1.47 nM; against Tyk2, 14 nM.

Regarding `N#C[C@H]1CCOC[C@@H]1n1cc(C(N)=O)c(Nc2ccc(Cl)cc2)n1` [Comp. Ex-1, reference compound], in the assay on EPO/Jak2/Stat5 pathway, the IC50 is 132 nM and the EPO/IL-6 was determined as 9.

Consider `N#C[C@H]1CCOC[C@@H]1n1cc(C(N)=O)c(Nc2ccc(Cl)c(Cl)c2)n1` [Comp. Ex-2, reference compound], for which, in the assay on EPO/Jak2/Stat5 pathway, the IC50 was 2170 nM and the EPO/IL-6 is listed as 31. Further, the IC50 in assay [2] amounted to 69 nM.

As for `N#C[C@H]1CCOC[C@@H]1n1cc(C(N)=O)c(Nc2ccc(OC(F)(F)F)cc2)n1` [Comp. Ex-3, reference compound], the figures for the IC50 (with EPO/Jak2/Stat5 pathway; in assay [2]) were 80 nM and 14 nM, respectively. Further, the EPO/IL-6 in the assay on EPO/Jak2/Stat5 pathway is on record as 6.

For `N#Cc1ccc(Nc2nn([C@H]3COCC[C@@H]3C#N)cc2C(N)=O)cc1` [Comp. Ex-4, reference compound], in the assay with EPO/Jak2/Stat5 pathway, the IC50 is 89 nM and the EPO/IL-6 is listed as 6. Moreover, the IC50 in assay [2] came to 14 nM.

With `COc1cc(Nc2nn([C@H]3COCC[C@@H]3C#N)cc2C(N)=O)ccc1Cl` [Ex-1, 3-((4-Chloro-3-methoxyphenyl)amino)-1-((3R,4S)-4-cyanotetrahydro-2H-pyran-3-yl)-1H-pyrazole-4-carboxamide], the IC50 at JAK2 came to 3.88 nM; at JAK1 (setting [3]) it was 0.12 nM; with EPO/Jak2/Stat5 pathway, 280 nM; in assay [2], 15 nM. The JAK2/1 on JAK2 came to 32. In addition, the EPO/IL-6 with EPO/Jak2/Stat5 pathway is on record as 19.

Regarding `CSc1cc(Nc2nn([C@H]3COCC[C@@H]3C#N)cc2C(N)=O)ccc1Cl` [Ex-2, 3-((4-chloro-3-(methylthio)phenyl)amino)-1-((3R,4S)-4-cyanotetrahydro-2H-pyran-3-yl)-1H-pyrazole-4-carboxamide], the IC50 worked out at 5.48 nM against JAK2, 0.25 nM against JAK1 (setting [3]), 649 nM with EPO/Jak2/Stat5 pathway and 22 nM in assay [2]. Moreover, the JAK2/1 at JAK2 is given as 22. Further, the EPO/IL-6 with EPO/Jak2/Stat5 pathway turned out to be 30.

With `COc1cc(Nc2nn([C@H]3COCC[C@@H]3C#N)cc2C(N)=O)ccc1C#N` [Ex-3, 3-((4-cyano-3-methoxyphenyl)amino)-1-((3R,4S)-4-cyanotetrahydro-2H-pyran-3-yl)-1H-pyrazole-4-carboxamide], the IC50 at JAK2 is 3.28 nM; on JAK1 (setting [3]), 0.07 nM; in the assay with EPO/Jak2/Stat5 pathway, 431 nM; in assay [2] it was 19 nM. For the same molecule, on JAK2, the JAK2/1 was 49. In the assay on EPO/Jak2/Stat5 pathway, the EPO/IL-6 was determined as 23.

`CC(C)c1cc(Nc2nn([C@H]3COCC[C@@H]3C#N)cc2C(N)=O)ccc1C#N` [Ex-4, 3-((4-cyano-3-isopropylphenyl)amino)-1-((3R,4S)-4-cyanotetrahydro-2H-pyran-3-yl)-1H-pyrazole-4-carboxamide]: the IC50 against JAK2 came out at 9.7 nM; on JAK1 (setting [3]) it was 0.49 nM; with EPO/Jak2/Stat5 pathway it was 744 nM; in assay [2], 47 nM. Also, the JAK2/1 at JAK2 was found to be 20. Besides, the EPO/IL-6 in the assay on EPO/Jak2/Stat5 pathway stood at 16.

Consider `Cc1noc2ccc(Nc3nn([C@H]4COCC[C@@H]4C#N)cc3C(N)=O)cc12` [Ex-5, 1-((3R,4S)-4-cyanotetrahydro-2H-pyran-3-yl)-3-((3-methylbenzo[d]isoxazol-5-yl)amino)-1H-pyrazole-4-carboxamide], for which the IC50 on JAK2 was 3.04 nM; on JAK1 (setting [3]), 0.16 nM; in the assay on EPO/Jak2/Stat5 pathway it was 309 nM; in assay [2], 17 nM. At JAK2, the JAK2/1 worked out at 19. For the same molecule, the EPO/IL-6 in the assay with EPO/Jak2/Stat5 pathway worked out at 18.
